Key:
[1] = target: α-MSH receptor; experiment: Frog melanocyte assay, pigment dispersion (agonist mode) in wild type melanophores; assay type: cell-based, Xenopus laevis; conditions: for EC50: FIG. 4; for pigment dispersion (result in words): α-MSH-ANT dimer: at higher concentrations (FIG. 6)
Description: Frog Melanocyte Assay. Xenopus laevis melanophores were maintained in culture as described by M. Engel et al., Biochemistry 30, 3161-3169 (1991); C. A. Slate et al., Int. J. Peptide Protein Res. 45, 290-298 (1995); and C. Plank et al., J. Biol. Chem. 269, 12918-12924 (1994). Transient expression of bombesin receptor plasmid DNA (pJG3.6BR) in melanophores was achieved by electroporation (C. A. Slate et al., Int. J. Peptide Protein Res. 45, 290-298 (1995)). Melanophores were plated (15,000 per well) on 96 well tissue culture plates (Falcon), and time and dose-response curves were obtained by microtiter plate assays (R. Duncan et al., Clin. Pharmacokinet. 27, 290-306 (1994); M. Engel et al., Biochemistry 30, 3161-3169 (1991); C. A. Slate et al., Int. J. Peptide Protein Res. 45, 290-298 (1995); C. Plank et al., J. Biol. Chem. 269, 12918-12924 (1994); and P. M. Conn et al., Endocrinology 111, 335-337 (1982)). Prior to addition of monomers or dimers, cells were washed and then incubated for one hour with 0.7× L15 media supplemented with 1 nM melatonin. […] Monomers or dimers were added to the microtiter wells in 20 μl aliquots at 10 times their final concentration. For IC50 curves, the media also was supplemented with 5 nM α-MSH.
(§1) Phototransmission was measured at 620 nm using a 340 ATTC microtiter plate reader (SLT Lab Instruments). Transmission readings were taken 1 hour following the addition of melatonin (Ti), and monomers or dimers were added immediately. Additional readings (Tf) were made at various time points (5-60 min). Data was curve fitted by nonlinear regression with y=1−(Tf/Ti). The final data was normalized and expressed as a percentage of maximal pigment dispersion (ymax).
For this study, a rapid, functional assay for G-protein-coupled receptors in frog melanophore cells (C. K. Jayawickreme et al., J. Biol. Chem. 269, 29846-29854 (1994); M. N. Potenza et al., Anal. Biochem. 206, 315-322 (1992); G. F. Graminski et al., J. Biol. Chem. 268, 5957-5964 (1993); S. Karne et al., J. Biol. Chem. 268, 19126-19133 (1993); and C. K. Jayawickreme et al., Proc. Natl. Acad. Sci. USA 91, 1614-1618 (1994)) was used. In frog melanocyte cells, ligands like α-MSH that mediate increases in cellular cyclic AMP levels, or like endothelin 3 that stimulate PI metabolism (S. Karne et al., J. Biol. Chem. 268, 19126-19133 (1993)), cause pigment dispersion and cell darkening, whereas inhibitors of cyclic AMP synthesis, like melatonin, cause pigment aggregation and cell lightening. In this study, the effect of monomeric and dimeric peptides on pigment dispersion was determined.
Wild type melanophores were used for assays involving α-MSH and α-MSH-ANT monomers and dimers. Melanophores that were transfected with a plasmid that contained the bombesin receptor coding region were used for assays involving bombesin monomer and dimer (G. F. Graminski et al., J. Biol. Chem. 268, 5957-5964 (1993); and C. K. Jayawickreme et al., Proc. Natl. Acad. Sci. USA 91, 1614-1618 (1994)).

[2] = target: α-MSH receptor; experiment: Frog melanocyte assay, inhibition of α-MSH (5 nM) mediated pigment dispersion in wild type melanophores; assay type: cell-based, Xenopus laevis; conditions: 5 nM α-MSH, t=30 min, FIG. 5
Description: Frog Melanocyte Assay. Xenopus laevis melanophores were maintained in culture as described by M. Engel et al., Biochemistry 30, 3161-3169 (1991); C. A. Slate et al., Int. J. Peptide Protein Res. 45, 290-298 (1995); and C. Plank et al., J. Biol. Chem. 269, 12918-12924 (1994). Transient expression of bombesin receptor plasmid DNA (pJG3.6BR) in melanophores was achieved by electroporation (C. A. Slate et al., Int. J. Peptide Protein Res. 45, 290-298 (1995)). […]
as §1, with “Data was curve fitted by nonlinear regression with y=1−(Tf/Ti).” left out
For this study, a rapid, functional assay for G-protein-coupled receptors in frog melanophore cells (C. K. Jayawickreme et al., J. Biol. Chem. 269, 29846-29854 (1994); M. N. Potenza et al., Anal. Biochem. 206, 315-322 (1992); G. F. Graminski et al., J. Biol. Chem. 268, 5957-5964 (1993); S. Karne et al., J. Biol. Chem. 268, 19126-19133 (1993); and C. K. Jayawickreme et al., Proc. Natl. Acad. Sci. USA 91, 1614-1618 (1994)) was used. […] In this study, the effect of monomeric and dimeric peptides on pigment dispersion was determined. […]

[3] = wild type melanophores, t=30 min

| EC50 of dimer lower as compared to the monomer (fold) [1, 3] | EC50 [1, 3] [nM] | stimulation of dispersion below a concentration of 1 μM ([1]; below 1 μM, absence of α-MSH) | IC50 [2] [nM] | Substance | pigment dispersion (result in words) ([1]; wild type melanophores) |
| --- | --- | --- | --- | --- | --- |
| approximately 5 fold | 72.5 ± 5 |  |  | homodimer: ligand domains SYSMEHFRWGKPV-, spacer GGG-εAhx, K(20), two disulfide-linked cysteines end capped at C-termini with β-alanine [α-MSH dimer] | stimulated dispersion in a time and dose-dependent manner |
|  | 372 ± 18 |  |  | SYSMEHFRWGKPV-GGG-εAhx-K(20)-βAla [α-MSH monomer] | stimulated dispersion in a time and dose-dependent manner |
|  |  | did not stimulate dispersion | 120 ± 6 | MPdFRdWFKPV-GGGεAhx-K(20)-βAla [α-MSH-ANT monomer, assay monomer lacking cysteine] | No significant dispersion |

Reference: US6500934B1, “Bivalent agonists for G-protein coupled receptors” (priority 1996, dated 2002)
